Measurements: US20110318426A1, “ANTIBACTERIAL AGENT AND METHOD OF USING THE SAME” (OSAKA MUNICIPAL TECHNICAL RESEARCH INSTITUTE, priority 2009, published 2011)

Experiments:
Format in all cases: cell-based
[1] = test system: Bacillus subtilis (IFO3215); test: MIC determination test (growth by absorbance at 620 nm)
Experimental: (§1) Then, the suspensions were centrifuged (5800×g, 30 min), whereby supernatants were obtained.
(§2) In each of the obtained LB culture media containing the antibacterial agents, 1 μL of Escherichia coli (IF03972), Staphyloccocus aureus (IAM112082), Pseudomonas aeruginosa (IAM11514), or Bacillus subtilis (IFO3215), which are microorganisms generally used in the evaluation of antibacterial properties, was inoculated and cultured at 27° C. for 5 days. Microplates (96-well microplates, available Falcon) were used for the culturing of the microorganisms, and the growth of the microorganisms was checked by determination of absorbance at 620 nm with a microplate reader (Multisckan Ascent available from Labsystems). As the microorganisms to be inoculated, those prepared as follows were used: microorganisms of each type were cultured under agitation at 27° C. for 18 hours in a 5 mL of an ordinary bouillon culture medium (available from Eiken Chemical Co., Ltd.), then, 1 mL of the same was sampled and centrifuged at 10000 rpm for 5 minutes, sediments were suspended in 1 ml of a 0.85% saline solution, and the suspension was diluted to 100 times.
as §1
(§3) In each of the obtained LB culture media containing the antibacterial agents, 1 μL of Staphyloccocus aureus or Bacillus subtilis was inoculated and cultured at 27° C. for 5 days. Microplates (96-well microplates, available Falcon) were used for the culturing of the microorganisms, and the growth of the microorganisms was checked by determination of absorbance at 620 nm with a microplate reader (Multisckan Ascent available from Labsystems). As the microorganisms to be inoculated, those prepared as follows were used: microorganisms of each type were cultured under agitation at 27° C. for 18 hours in a 5 mL of an ordinary bouillon culture medium (available from Eiken Chemical Co., Ltd.), then, 1 mL of the same was sampled and centrifuged at 10000 rpm for 5 minutes, sediments were suspended in 1 ml of a 0.85% saline solution, and the suspension was further diluted to 100 times.
as §1

[2] = test system: Escherichia coli (IF03972); test: as above
Experimental: as §1, §2, §1, §3, §1

[3] = test system: Pseudomonas aeruginosa (IAM11514); test: as above
Experimental: as §1, §2, §1, §3, §1

[4] = test system: Staphyloccocus aureus (IAM112082); test: as above
Experimental: as §1, §2, §1, §3, §1

Escherichia coli = test: Bactericidal effect determination test (viable count, pour plate method); conditions: for count of viable Escherichia coli: detection limit
Experimental: as §1
(§4) An Escherichia coli suspension, 20 μL, was added to each of the obtained LB culture media containing the antibacterial agents, whereby liquids for use in the bactericidal effect determination test were obtained. The liquids were sampled, 50 μL each, at the start, one hour later, three hours later, and 24 hours later, and each sample was added to 4.95 mL of a LP diluent. Each resultant was diluted at four steps, ten times each, and the count of viable bacteria in 1 mL of each diluted liquid was determined by the pour plate method. The Escherichia coli suspension used was a suspension obtained by culturing Escherichia coli under agitation at 27° C. for 18 hours in a 5 mL of an ordinary bouillon culture medium (available from Eiken Chemical Co., Ltd.), then, sampling 1 mL of the same and centrifuging the sample at 10000 rpm for 5 minutes, thereafter, suspending sediments in 1 ml of a 0.85% saline solution, and diluting the same to 10 times.
The suspension was agitated at 30° C. for 18 hours. Then, the suspension was centrifuged (5800×g, 30 min), whereby a supernatant, i.e., an LB culture medium containing an antibacterial agent, was prepared.
as §4, with “to” for “to each of”, “medium” for “media”, “agent,” for “agents,”, “liquid was” for “liquids were”, “start, 0.25 hour later,” for “start,”, “eight” for “24”

Question: What does the source list for `O.O.O.O.O.O=S(=O)([O-])[O-].[Cu+2]` [copper ions, copper sulfate pentahydrate]?
Answer: antibacterial property when phosphorus-adsorbing material was mixed [1]: improved; antibacterial property when phosphorus-adsorbing material was mixed [2]: did not improve; antibacterial property when phosphorus-adsorbing material was mixed [3]: did not improve; antibacterial property when phosphorus-adsorbing material was mixed [4]: improved

Question: For `O=[N+]([O-])[O-].[Ag+]` [silver ions, silver nitrate], which “MIC of silver ions” value ([2]; 0.5 to 1% (W/V) of allophane contained) is on record?
Answer: Its value is 0.5 µg/mL.

Question: What about the “MIC of silver ions” value ([2]; 2% (W/V) of allophane contained) of the same compound?
Answer: The value was 0.125 µg/mL.

Question: What about the “MIC of silver ions” value ([2]; 4% (W/V) of allophane contained) of the same compound?
Answer: Its value is 0.0313 µg/mL.

Question: And the “MIC of silver ions” value ([2]; allophane not contained)?
Answer: Its value is “about 1 mg/L”.

Question: And the “viable Escherichia coli observed” value (Escherichia coli; silver ions 1 mg/L, 1% (W/V) of allophane)?
Answer: Its value is “only few Escherichia coli were observed”.

Question: And the “count of viable Escherichia coli” value (Escherichia coli; silver ions 1 mg/L, 4% (W/V) of regenerated collagen powder)?
Answer: Its value is less than 1000 cfu/ml.

Question: What about the “count of viable Escherichia coli” value (Escherichia coli; silver ions 1 mg/L, 4% or more of allophane) of the same compound?
Answer: The value was less than 1000 cfu/ml.

Question: And the “Count of viable bacteria” value (Escherichia coli; silver ions 1 mg/L, allophane 0% (W/V), time 0 h)?
Answer: The value was 10,800,000 cfu/mL.

Question: And the “Count of viable bacteria” value (Escherichia coli; silver ions 1 mg/L, allophane 0% (W/V), time 1 h)?
Answer: The value was 14,900,000 cfu/mL.

Question: And the “Count of viable bacteria” value (Escherichia coli; silver ions 1 mg/L, allophane 0% (W/V), time 3 h)?
Answer: Its value is 3,930,000 cfu/mL.

Question: And the “Count of viable bacteria” value (Escherichia coli; silver ions 1 mg/L, allophane 0% (W/V), time 24 h)?
Answer: The value was 95,000,000 cfu/mL.

Question: What about the “Count of viable bacteria” value (Escherichia coli; silver ions 1 mg/L, allophane 1% (W/V), time 0 h) of the same compound?
Answer: Its value is 10,800,000 cfu/mL.

Question: What about the “Count of viable bacteria” value (Escherichia coli; silver ions 1 mg/L, allophane 1% (W/V), time 1 h) of the same compound?
Answer: The value was 52,000 cfu/mL.

Question: And the “Count of viable bacteria” value (Escherichia coli; silver ions 1 mg/L, allophane 1% (W/V), time 3 h)?
Answer: Its value is 3,500 cfu/mL.

Question: What about the “Count of viable bacteria” value (Escherichia coli; silver ions 1 mg/L, allophane 1% (W/V), time 24 h) of the same compound?
Answer: Its value is 2,600 cfu/mL.

Question: What about the “Count of viable bacteria” value (Escherichia coli; silver ions 1 mg/L, allophane 4% (W/V), time 0 h) of the same compound?
Answer: Its value is 10,800,000 cfu/mL.

Question: What about the “Count of viable bacteria” value (Escherichia coli; silver ions 1 mg/L, allophane 4% (W/V), time 1 h) of the same compound?
Answer: The value was 1,100 cfu/mL.

Question: And the “Count of viable bacteria” value (Escherichia coli; silver ions 1 mg/L, allophane 4% (W/V), time 3 h)?
Answer: The value was 1,000 or less cfu/mL.

Question: What about the “Count of viable bacteria” value (Escherichia coli; silver ions 1 mg/L, allophane 4% (W/V), time 24 h) of the same compound?
Answer: The value was 1,000 or less cfu/mL.

Question: What about the “Count of viable bacteria” value (Escherichia coli; silver ions 1 mg/L, allophane 8% (W/V), time 0 h) of the same compound?
Answer: Its value is 10,800,000 cfu/mL.

Question: What about the “Count of viable bacteria” value (Escherichia coli; silver ions 1 mg/L, allophane 8% (W/V), time 1 h) of the same compound?
Answer: Its value is 1,000 or less cfu/mL.

Question: What about the “Count of viable bacteria” value (Escherichia coli; silver ions 1 mg/L, allophane 8% (W/V), time 3 h) of the same compound?
Answer: The value was 1,000 or less cfu/mL.

Question: What about the “Count of viable bacteria” value (Escherichia coli; silver ions 1 mg/L, allophane 8% (W/V), time 24 h) of the same compound?
Answer: The value was 1,000 or less cfu/mL.

Question: And the “Count of viable bacteria” value (Escherichia coli; silver ions 1 mg/L, regenerated collagen powder 0% (W/V), time 1 h)?
Answer: The value was 6.2 × 10^7 cfu/mL.

Question: And the “Count of viable bacteria” value (Escherichia coli; silver ions 1 mg/L, regenerated collagen powder 0% (W/V), time 3 h)?
Answer: The value was 6.7 × 10^7 cfu/mL.

Question: What about the “Count of viable bacteria” value (Escherichia coli; silver ions 1 mg/L, regenerated collagen powder 0% (W/V), time 8 h) of the same compound?
Answer: The value was 2.4 × 10^7 cfu/mL.

Question: What about the “Count of viable bacteria” value (Escherichia coli; silver ions 1 mg/L, regenerated collagen powder 0% (W/V), time […]) of the same compound?
Answer: Its value is 8.1 × 10^7 cfu/mL.

Question: What about the “Count of viable bacteria” value (Escherichia coli; silver ions 1 mg/L, regenerated collagen powder 4% (W/V), time 1 h) of the same compound?
Answer: Its value is 9.9 × 10^6 cfu/mL.

Question: And the “Count of viable bacteria” value (Escherichia coli; silver ions 1 mg/L, regenerated collagen powder 4% (W/V), time 3 h)?
Answer: The value was 1.4 × 10^5 cfu/mL.

Question: What about the “Count of viable bacteria” value (Escherichia coli; silver ions 1 mg/L, regenerated collagen powder 4% (W/V), time 8 h) of the same compound?
Answer: Its value is ≤ 1.0 × 10^3 cfu/mL.

Question: What about the “Count of viable bacteria” value (Escherichia coli; silver ions 1 mg/L, regenerated collagen powder 4% (W/V), time […]) of the same compound?
Answer: The value was 4.7 × 10^4 cfu/mL.

Question: And the “count of viable Escherichia coli” value (Escherichia coli; silver ions 5 mg/L, 1% (W/V) or more of allophane)?
Answer: The value was less than 1000 cfu/ml.

Question: And the “Count of viable bacteria” value (Escherichia coli; silver ions 5 mg/L, allophane 0% (W/V), last time point (24 h, time cell misprinted))?
Answer: The value was 1000 or less cfu/mL.

Question: And the “Count of viable bacteria” value (Escherichia coli; silver ions 5 mg/L, allophane 0% (W/V), time 0 h)?
Answer: The value was 10,800,000 cfu/mL.

Question: And the “Count of viable bacteria” value (Escherichia coli; silver ions 5 mg/L, allophane 0% (W/V), time 1 h)?
Answer: The value was 6,000,000 cfu/mL.

Question: And the “Count of viable bacteria” value (Escherichia coli; silver ions 5 mg/L, allophane 0% (W/V), time 3 h)?
Answer: Its value is 29,000 cfu/mL.

Question: What about the “Count of viable bacteria” value (Escherichia coli; silver ions 5 mg/L, allophane 1% (W/V), last time point (24 h, time cell misprinted)) of the same compound?
Answer: The value was 1,000 or less cfu/mL.

Question: And the “Count of viable bacteria” value (Escherichia coli; silver ions 5 mg/L, allophane 1% (W/V), time 0 h)?
Answer: Its value is 10,800,000 cfu/mL.

Question: And the “Count of viable bacteria” value (Escherichia coli; silver ions 5 mg/L, allophane 1% (W/V), time 1 h)?
Answer: Its value is 1,000 or less cfu/mL.

Question: And the “Count of viable bacteria” value (Escherichia coli; silver ions 5 mg/L, allophane 1% (W/V), time 3 h)?
Answer: Its value is 1,000 or less cfu/mL.

Question: And the “Count of viable bacteria” value (Escherichia coli; silver ions 5 mg/L, allophane 4% (W/V), last time point (24 h, time cell misprinted))?
Answer: The value was 1,000 or less cfu/mL.

Question: And the “Count of viable bacteria” value (Escherichia coli; silver ions 5 mg/L, allophane 4% (W/V), time 0 h)?
Answer: Its value is 10,800,000 cfu/mL.

Question: And the “Count of viable bacteria” value (Escherichia coli; silver ions 5 mg/L, allophane 4% (W/V), time 1 h)?
Answer: The value was 1,000 or less cfu/mL.

Question: What about the “Count of viable bacteria” value (Escherichia coli; silver ions 5 mg/L, allophane 4% (W/V), time 3 h) of the same compound?
Answer: Its value is 1,000 or less cfu/mL.

Question: What about the “Count of viable bacteria” value (Escherichia coli; silver ions 5 mg/L, allophane 8% (W/V), last time point (24 h, time cell misprinted)) of the same compound?
Answer: The value was 1,000 or less cfu/mL.

Question: And the “Count of viable bacteria” value (Escherichia coli; silver ions 5 mg/L, allophane 8% (W/V), time 0 h)?
Answer: The value was 10,800,000 cfu/mL.

Question: What about the “Count of viable bacteria” value (Escherichia coli; silver ions 5 mg/L, allophane 8% (W/V), time 1 h) of the same compound?
Answer: Its value is 1,000 or less cfu/mL.

Question: And the “Count of viable bacteria” value (Escherichia coli; silver ions 5 mg/L, allophane 8% (W/V), time 3 h)?
Answer: Its value is 1,000 or less cfu/mL.

Question: `O.O.O.O.O.O.O.O=S(=O)([O-])[O-].[Zn+2]` [zinc ions, zinc sulfate heptahydrate] was tested. Which “antibacterial property when phosphorus-adsorbing material was mixed” value (from here on “antibacterial property”) [1] did it give?
Answer: The value was “improved”.

Question: What about the “antibacterial property” value [2] of the same compound?
Answer: Its value is “did not improve”.

Question: And the “antibacterial property” value [3]?
Answer: The value was “did not improve”.

Question: What about the “MIC decrease relative to no allophane (fraction)” value [4] of the same compound?
Answer: The value was “about ⅛”.

Question: And the “antibacterial property” value [4]?
Answer: The value was “improved”.
